For data set [1] the following is noted: given along with vortioxetine (Fig. 4).
For data set [2] the following is noted: cited from earlier work.
The mark [3] stands for this setting: cocktail with vortioxetine (Fig. 4).

On to `CC(=O)Oc1ccccc1C(=O)O` [aspirin], for which the “effect of vortioxetine on the pharmacokinetics of the co-administered drug” value (“effect of vortioxetine” below) in data set [1] is given as “No effect”. Consider `Cn1c(=O)c2c(ncn2C)n(C)c1=O` [caffeine], for which the “effect of vortioxetine” value in data set [1] is recorded as “No effect”. Consider `COc1ccc2c(c1)[C@]13CCCC[C@@H]1[C@H](C2)N(C)CC3` [dextromethorphan], for which, in data set [2] (setting [3]), the “AUC(0–inf), 90% CI lower limit (with vs without vortioxetine)” value was 58% and the “C max, 90% CI lower limit (with vs without vortioxetine)” value is 68%. `CN1C(=O)CN=C(c2ccccc2)c2cc(Cl)ccc21` [diazepam]: in data set [1], the “effect of vortioxetine” value is “No effect”.

Take `CCO` [ethanol]: the “effect of vortioxetine” value in data set [1] was “No effect”. As to `C#C[C@]1(O)CC[C@H]2[C@@H]3CCc4cc(O)ccc4[C@H]3CC[C@@]21C` [ethinyl estradiol], the “effect of vortioxetine” value in data set [1] is listed as “No effect”. With `C#C[C@]1(O)CC[C@H]2[C@@H]3CCC4=CC(=O)CC[C@@H]4[C@H]3CC[C@@]21CC` [levonorgestrel], the “effect of vortioxetine” value in data set [1] is “No effect”. Turning to `O=C([O-])[O-].[Li+].[Li+]` [lithium], the “effect of vortioxetine” value in data set [1] is “No effect”.

On to `Cc1ncc2n1-c1ccc(Cl)cc1C(c1ccccc1F)=NC2` [midazolam], for which the “effect of vortioxetine” value in data set [1] is reported as “No effect”. As for `COc1ccc2[nH]c([S+]([O-])Cc3ncc(C)c(OC)c3C)nc2c1` (stereo not shown) [omeprazole], in data set [2] (multiple doses of vortioxetine (Fig. 4)), the “C max, upper limit of the 90% CI (with vs without vortioxetine)” value was 130%. Moreover, in data set [2] (multiple doses of vortioxetine, within limits), the “90% CI for AUC(0–inf) (with vs without vortioxetine)” value is given as 80–125%. Further, the “effect of vortioxetine” value in data set [1] is reported as “no apparent effect”.

(Values after PMC5973995 (Clinical Pharmacokinetics, 2017).)
